Results from paper doi:10.1101/2025.05.06.651509v2 (biorxiv, 2026).

Assays:
TSC22D4 = target: T1, TSC22D4 (Homo sapiens, UniProt Q9Y3Q8); experiment: microscale thermophoresis; type: binding; settings: room temperature
T1 sequence (Q9Y3Q8 1-395): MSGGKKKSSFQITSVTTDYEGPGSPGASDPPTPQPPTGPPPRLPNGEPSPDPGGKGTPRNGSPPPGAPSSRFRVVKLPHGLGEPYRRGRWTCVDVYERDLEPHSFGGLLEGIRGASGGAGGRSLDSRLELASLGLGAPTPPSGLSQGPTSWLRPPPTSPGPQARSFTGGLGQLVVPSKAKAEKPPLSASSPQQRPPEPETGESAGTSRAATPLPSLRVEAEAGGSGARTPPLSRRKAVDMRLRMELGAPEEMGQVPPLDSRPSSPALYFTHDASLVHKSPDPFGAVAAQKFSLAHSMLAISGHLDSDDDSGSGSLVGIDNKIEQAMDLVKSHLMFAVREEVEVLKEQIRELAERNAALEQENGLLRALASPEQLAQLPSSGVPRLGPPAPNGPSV

IGF2BP2 = IGF2BP2 (Homo sapiens, UniProt Q9Y6M1); experiment: microscale thermophoresis; type: binding; settings: room temperature; legend of Figure 4A prints 12 μM
Sequence of IGF2BP2 (Q9Y6M1 whole entry): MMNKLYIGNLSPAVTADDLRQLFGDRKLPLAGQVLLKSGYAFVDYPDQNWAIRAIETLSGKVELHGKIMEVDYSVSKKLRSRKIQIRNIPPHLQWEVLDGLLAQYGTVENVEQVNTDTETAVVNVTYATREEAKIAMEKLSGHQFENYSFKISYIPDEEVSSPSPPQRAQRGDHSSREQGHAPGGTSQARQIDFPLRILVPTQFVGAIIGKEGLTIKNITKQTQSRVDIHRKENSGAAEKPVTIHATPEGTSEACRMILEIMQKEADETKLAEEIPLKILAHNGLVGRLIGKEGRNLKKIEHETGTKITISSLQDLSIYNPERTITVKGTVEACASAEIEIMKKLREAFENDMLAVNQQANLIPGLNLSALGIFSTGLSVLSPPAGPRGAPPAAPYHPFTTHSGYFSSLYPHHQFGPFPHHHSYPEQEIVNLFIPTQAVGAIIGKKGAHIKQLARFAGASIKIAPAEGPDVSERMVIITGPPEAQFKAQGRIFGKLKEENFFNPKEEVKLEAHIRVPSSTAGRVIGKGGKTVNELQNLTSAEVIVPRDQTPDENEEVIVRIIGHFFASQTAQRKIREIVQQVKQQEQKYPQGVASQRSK

OC[C@H]1OC(O)[C@H](O)[C@@H](O)[C@@H]1O (some centres unmarked) [glucose]
Kd (TSC22D4): ~464 µM | Kd (IGF2BP2): 8.2 µM
